This is an account of results in US9409876B2, “Bradykinin receptor antagonists and pharmaceutical compositions containing them” (DOMPE' FARMACEUTICI S.P.A., priority 2013, dated 2016).

The term IC50 denotes the midpoint of a concentration-inhibition curve.

In the test the target is T1, BKB1 receptors (Homo sapiens, UniProt P46663).
T1 construct: Human (IMR-90) lung fibroblast cells expressing native BKB1 receptors; endogenous in cells; host or cells: IMR-90 human lung fibroblasts, treated with human IL-1 to up-regulate BKB1
T1 sequence (P46663 1-353): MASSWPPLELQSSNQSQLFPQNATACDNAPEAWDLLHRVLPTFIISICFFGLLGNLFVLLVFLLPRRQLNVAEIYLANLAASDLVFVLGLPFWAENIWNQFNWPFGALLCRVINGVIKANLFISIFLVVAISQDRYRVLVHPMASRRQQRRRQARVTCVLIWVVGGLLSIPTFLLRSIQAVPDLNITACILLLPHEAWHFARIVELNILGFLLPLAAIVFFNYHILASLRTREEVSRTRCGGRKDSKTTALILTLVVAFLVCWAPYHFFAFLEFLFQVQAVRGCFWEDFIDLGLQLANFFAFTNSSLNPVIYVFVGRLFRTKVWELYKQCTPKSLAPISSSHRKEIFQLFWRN
Description: Calcium Mobilization Assay (FLIPR), IMR-90 cells, BKB1. The note with it: IL-1 induced IMR-90 cells, agonist desArg10-kallidin (DAKD). Format: cell-based. Here is the method: Calcium Mobilization Assay (FLIPR)—Human (IMR-90) lung fibroblast cells expressing native BKB1 receptors were harvested by trypsinization and seeded into black wall/clear bottom 96-well plates (Costar 3904; Corning Life Sciences, Acton, Mass.) at approximately 13,000 cells/well. After 1 day incubation, cells were treated with human IL-1 (0.35 ng/ml) in 10% FBS/MEM for 2 h to up-regulate BKB1 receptors. Induced cells were loaded with fluorescent calcium indicator by incubation with 2.3 µM Fluo-4/acetoxymethyl ester (Invitrogen) at 37° C. for 1.5 h in the presence of an anion transport inhibitor (2.5 mM probenecid in 1% FBS/MEM). Extracellular dye was removed by washing with assay buffer (2.5 mM probenecid, 0.1% BSA in 20 mM HEPES/HBSS without bicarbonate or phenol red, pH 7.5) and cell plates were kept in the dark until used. Test compounds were assayed at eight concentrations in triplicate.
For orientation: A change in cytosolic calcium serves as a functional read-out for many receptors and channels.

For `Cc1ccc(C(C(=O)NCC2CCCO2)N(Cc2csc3ccccc23)C(=O)CN(C)C)cc1` (stereo not shown) [39 (mix), N-(1-benzothiophen-3-ylmethyl)-2-(dimethylamino)-N-{1-(4-methylphenyl)-2-oxo-2-[(tetrahydrofuran-2-ylmethyl)amino]ethyl}acetamide], the IC50 came out at 1200 nM.

Turning to `Cc1ccc(C(C(=O)NCC2CCCO2)N(CC2CCCCC2)C(=O)Cc2cccc(C)c2)cc1` (stereo not shown) [40 (mix), N-(cyclohexylmethyl)-2-(3-methylphenyl)-N-{1-(4-methylphenyl)-2-oxo-2-[(tetrahydrofuran-2-ylmethyl)amino]ethyl}acetamide], the 50% inhibitory concentration (IC50) worked out at 5100 nM. With `CCC(CC)CN(C(=O)Cc1ccccc1C)C(C(=O)NCC1CCCO1)c1ccc(C)cc1` (stereo not shown) [41 (mix), N-(2-ethylbutyl)-2-(2-methylphenyl)-N-{1-(4-methylphenyl)-2-oxo-2-[(tetrahydrofuran-2-ylmethyl)amino]ethyl}acetamide] the figure was 4300 nM. The same measure for `CCC(CC)CN(C(=O)Cc1ccc(F)cc1)C(C(=O)NCC1CCCO1)c1ccc(C)cc1` (stereo not shown) [42 (mix), N-(2-ethylbutyl)-2-(4-fluorophenyl)-N-{1-(4-methylphenyl)-2-oxo-2-[(tetrahydrofuran-2-ylmethyl)amino]ethyl}acetamide]: 9600 nM; for `Cc1ccc(C(C(=O)NCC2CCCO2)N(Cc2cccn2C)C(=O)CN(C)C)cc1` (stereo not shown) [43 (mix), 2-(dimethylamino)-N-[(1-methyl-1H-pyrrol-2-yl)methyl]-N-{1-(4-methylphenyl)-2-oxo-2-[(tetrahydrofuran-2-ylmethyl)amino]ethyl}acetamide]: 9500 nM.

For the molecule `Cc1ccc(C(C(=O)NCC2CCCO2)N(CC2CCCC2)C(=O)Cc2ccccc2C)cc1` (stereo not shown) [44 (mix), N-(cyclopentylmethyl)-2-(2-methylphenyl)-N-{1-(4-methylphenyl)-2-oxo-2-[(tetrahydrofuran-2-ylmethyl)amino]ethyl}acetamide], the IC50 was 12600 nM. In the case of `Cc1ccc(C(C(=O)NCC2CCCO2)N(CC2CCCC2)C(=O)Cc2cccc(C)c2)cc1` (stereo not shown) [45 (mix), N-(cyclopentylmethyl)-2-(3-methylphenyl)-N-{1-(4-methylphenyl)-2-oxo-2-[(tetrahydrofuran-2-ylmethyl)amino]ethyl}acetamide], the IC50 is 13100 nM.

Consider `Cc1ccc(C(C(=O)NCC2CCCO2)N(Cc2cccnc2)C(=O)Cc2ccccc2C)cc1` (stereo not shown) [46 (mix), 2-(2-methylphenyl)-N-(pyridin-3-ylmethyl)-N-{1-(4-methylphenyl)-2-oxo-2-[(tetrahydrofuran-2-ylmethyl)amino]ethyl}acetamide], for which the IC50 stood at 11700 nM.

Take `Cc1ccc(C(C(=O)NCC2CCCO2)N(CC2CCCC2)C(=O)Cc2ccccc2)cc1` (stereo not shown) [47 (mix), N-(cyclopentylmethyl)-N-{1-(4-methylphenyl)-2-oxo-2-[(tetrahydrofuran-2-yl)methylamino]ethyl}2-phenylacetamide]: the half-maximal inhibitory concentration (IC50) was 9800 nM.

For the molecule `Cc1ccc(C(C(=O)NCC2CCCO2)N(CC2CCCCC2)C(=O)CC2CCCC2)cc1` (stereo not shown) [48 (mix), N-(cyclohexylmethyl)-2-cyclopentyl-N-{1-(4-methylphenyl)-2-oxo-2-[(tetrahydrofuran-2-ylmethyl)amino]ethyl}acetamide], the 50% inhibitory concentration (IC50) turned out to be 15000 nM.

Take `Cc1ccc(C(C(=O)NCC2CCCO2)N(CC(C)C)C(=O)Cc2c[nH]cn2)cc1` (stereo not shown) [49 (mix), 2-(1H-imidazol-4-yl)-N-(2-methylpropyl)-N-{1-(4-methylphenyl)-2-oxo-2-[(tetrahydrofuran-2-ylmethyl)amino]ethyl}acetamide]: the IC50 turned out to be 14700 nM. For `CCC(CC)CN(C(=O)C1CCCCC1)C(C(=O)NCC1CCCO1)c1ccc(C)cc1` (stereo not shown) [50 (mix), N-(2-ethylbutyl)-N-{1-(4-methylphenyl)-2-oxo-2-[(tetrahydrofuran-2-ylmethyl)amino]ethyl}cyclohexanecarboxamide], the IC50 turned out to be 14200 nM. Regarding `Cc1ccc(C(C(=O)NCC2CCCO2)N(CC2CCCC2)C(=O)CC2CCCC2)cc1` (stereo not shown) [51 (mix), 2-cyclopentyl-N-cyclopentylmethyl-N-{1-(4-methylphenyl)-2-oxo-2-[(tetrahydrofuran-2-ylmethyl)amino]ethyl}acetamide], the half-maximal inhibitory concentration (IC50) was found to be 13000 nM. As for `COc1ccccc1CN(C(=O)CC(C)C)C(C(=O)NCC1CCCO1)c1ccc(C2CC2)cc1` (stereo not shown) [52 (mix), N-(2-methoxybenzyl]-N-[1-(4-cyclopropylphenyl)-2-oxo-2-[(tetrahydrofuran-2-yl)methylamino]ethyl)-3-methylbutanamide], the IC50 was determined as 63 nM. With `COc1ccccc1CN(C(=O)Cn1nnc2ccccc21)C(C(=O)NCC1CCCO1)c1ccc(C(F)(F)F)cc1` (stereo not shown) [53 (mix), 2-(1H-benzotriazol-1-yl)-N-(2-methoxybenzyl)-N-{1-(4-trifluoromethylphenyl)-2-oxo-2-[(tetrahydrofuran-2-ylmethyl)amino]ethyl}acetamide] the figure was 297 nM; with `COc1ccccc1CN(C(=O)CC(C)C)C(C(=O)NCC1CCCO1)c1ccc(C(F)(F)F)cc1` (stereo not shown) [54 (mix)], 528 nM; with `COc1ccccc1CN(C(=O)Cn1nnc2ccccc21)[C@@H](C(=O)NC[C@H]1CCCO1)c1ccc(C)cc1` [Compound 1 (R,R), 2-(1H-benzotriazol-1-yl)-N-(2-methoxybenzyl)-N-{[(1R)-1-(4-methylphenyl)]-2-oxo-2-[(2R)-(tetrahydrofuran-2-ylmethyl)amino]ethyl}acetamide], 43 nM. For the molecule `COc1ccccc1CN(C(=O)c1coc(C)n1)[C@@H](C(=O)NC[C@H]1CCCO1)c1ccc(C)cc1` [Compound 2 (R,R)], the IC50 stood at 63 nM. With `COc1ccccc1CN(C(=O)Cc1cccc(F)c1F)[C@@H](C(=O)NC[C@H]1CCCO1)c1ccc(C)cc1` [Compound 3 (R,R), 2-(2,3-difluorophenyl)-N-(2-methoxybenzyl)-N-{(1R)-1-(4-methylphenyl)-2-oxo-2-[(2R)-(tetrahydrofuran-2-ylmethyl)amino]ethyl}acetamide] the figure was 540 nM; with `COc1ccccc1CN(C(=O)c1ccco1)[C@@H](C(=O)NC[C@H]1CCCO1)c1ccc(C)cc1` [Compound 4 (R,R), N-(2-methoxybenzyl)-N-[(1R)-1-(4-methylphenyl)-2-oxo-2-{[(2R)tetrahydrofuran-2-ylmethyl]amino}ethyl]furan-2-carboxamide], 358 nM; with `COc1ccccc1CN(C(=O)Cc1c(F)cccc1F)[C@@H](C(=O)NC[C@H]1CCCO1)c1ccc(C)cc1` [Compound 6 (R,R), 2-(2,6-difluorophenyl)-N-(2-methoxybenzyl)-N-{(1R)-1-(4-methylphenyl)-2-oxo-2-[(2R)-(tetrahydrofuran-2-ylmethyl)amino]ethyl}acetamide], 456 nM. The same measure for `COc1ccccc1CN(C(=O)Cc1ccccc1)[C@@H](C(=O)NC[C@H]1CCCO1)c1ccc(C)cc1` [Compound 7 (R,R), N-(2-methoxybenzyl)-N-{(1R)-1-(4-methylphenyl)-2-oxo-2-[(2R)-(tetrahydrofuran-2-ylmethyl)amino]ethyl}-2-phenylacetamide]: 200 nM; for `COc1ccccc1CN(C(=O)Cn1ccnn1)[C@@H](C(=O)NC[C@H]1CCCO1)c1ccc(C)cc1` [Compound 30 (R,R), N-(2-methoxybenzyl)-N-{(1R)-1-(4-methylphenyl)-2-oxo-2-[(2R)-(tetrahydrofuran-2-ylmethyl)amino]ethyl}-2-(1H-1,2,3-triazol-1-yl)acetamide]: 11 nM; for “N-(2-methoxybenzyl)-N-{(1R)-1-(4-methylphenyl)-2-oxo-2-[(2R)-(pyrrolidin-2-ylmethyl)amino]ethyl}-2-(1H-1,2,3-triazol-1-yl)acetate [Compound 55 (R,R)]”: 75.7 nM. With “N-(2-methoxybenzyl)-N-{(1S)-1-(4-methylphenyl)-2-oxo-2-[(2R)-(pyrrolidin-2-ylmethyl)amino]ethyl}-2-(1H-1,2,3-triazol-1-yl)acetate [55 (S,R)]” the figure was 120 nM.
